Measurements as given in patent US20240158446A1, “CYCLIC COMPOUND HAVING SELECTIVE INHIBITORY ACTION ON KRAS OVER HRAS AND NRAS” (CHUGAI SEIYAKU KABUSHIKI KAISHA, priority 2021, published 2024).

What was measured:
[1] = target: GDP-bound KRAS wild-type protein (Homo sapiens, UniProt P01116); assay: Binding to KRAS by surface plasmon resonance (SPR), Single Cycle Kinetics; conditions: SPR Single Cycle Kinetics, GDP-bound KRAS wild-type protein, 1:1 binding model; read-out: KRAS KD
[2] = target: GDP-bound HRAS wild-type protein (Homo sapiens, UniProt P01112); assay: Binding to HRAS by surface plasmon resonance (SPR), Single Cycle Kinetics; conditions: SPR KD ratio HRAS/KRAS, class symbols
[3] = target: GDP-bound NRAS wild-type protein (Homo sapiens, UniProt P01111); assay: Binding to NRAS by surface plasmon resonance (SPR), Single Cycle Kinetics; conditions: SPR KD ratio NRAS/KRAS, class symbols
Chain of GDP-bound NRAS wild-type protein (P01111 whole entry): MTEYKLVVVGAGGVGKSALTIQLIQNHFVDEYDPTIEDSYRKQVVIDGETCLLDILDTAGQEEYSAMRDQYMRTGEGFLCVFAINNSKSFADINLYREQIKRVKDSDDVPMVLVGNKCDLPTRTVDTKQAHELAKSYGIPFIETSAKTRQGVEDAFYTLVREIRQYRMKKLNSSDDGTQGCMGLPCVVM

Chain of GDP-bound HRAS wild-type protein (P01112 whole entry): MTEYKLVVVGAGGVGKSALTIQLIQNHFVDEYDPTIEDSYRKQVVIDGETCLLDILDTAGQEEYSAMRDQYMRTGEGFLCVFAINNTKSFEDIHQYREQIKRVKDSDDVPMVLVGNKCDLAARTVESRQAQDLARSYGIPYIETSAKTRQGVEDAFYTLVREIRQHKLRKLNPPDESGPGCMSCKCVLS
Chain of GDP-bound KRAS wild-type protein (P01116 whole entry): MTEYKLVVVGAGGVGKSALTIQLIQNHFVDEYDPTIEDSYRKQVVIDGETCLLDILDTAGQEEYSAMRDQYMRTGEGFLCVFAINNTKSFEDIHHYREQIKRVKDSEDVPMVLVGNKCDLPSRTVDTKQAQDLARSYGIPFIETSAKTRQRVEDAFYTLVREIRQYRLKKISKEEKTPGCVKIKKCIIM

Row | SMILES | Kd [1] [nM] | HRAS/KRAS (ratio of KD value with respect to GDP-bound HRAS wild-type protein to KD value with respect to KRAS) [2] | NRAS/KRAS (ratio of KD value with respect to GDP-bound NRAS wild-type protein to KD value with respect to KRAS) [3]
1 | CCC(CC)[C@H]1C(=O)N(C)[C@H](C(=O)N(C)C)CC(=O)N(C)[C@H]2CCC/C=C/c3ccc(cc3)C[C@@H](C(=O)N(C)CC(=O)N[C@@H](CCc3cc(F)c(C(F)(F)F)c(F)c3)C(=O)N3CCC[C@H]3C(=O)NC3(CC(C)(C)C3)C(=O)N1C)N1CC/C=C\C[C@@H](C1=O)N(C)C(=O)CN(C)C(=O)[C@H]([C@@H](C)CC)NC2=O [PP2600] | 0.17 | A (a compound having 10 or more and less than 20 is denoted as A) | A (a compound having 10 or more and less than 20 is denoted as A)
2 | CC[C@H](C)[C@@H]1NC(=O)[C@@H]2CCC/C=C/c3ccc(cc3)C[C@@H](C(=O)N(C)CC(=O)N[C@@H](CCc3ccc(Cl)c(Cl)c3)C(=O)N3CCC[C@H]3C(=O)NC3(CC(C)(C)C3)C(=O)N(C)[C@@H](C3CCCC3)C(=O)N(C)[C@H](C(=O)N(C)CC)CC(=O)N2C)N2CC/C=C\C[C@@H](C2=O)N(C)C(=O)CN(C)C1=O [PP2601] | 0.2 | A (a compound having 10 or more and less than 20 is denoted as A) | A (a compound having 10 or more and less than 20 is denoted as A)
3 | CC[C@H](C)[C@@H]1NC(=O)[C@@H]2CCC/C=C/c3ccc(cc3)C[C@@H](C(=O)N(C)CC(=O)N[C@@H](CCc3ccc(Cl)c(Cl)c3)C(=O)N3CCC[C@H]3C(=O)NC3(CC(C)(C)C3)C(=O)N(C)[C@@H](C3CCCC3)C(=O)N(C)[C@H](C(=O)N3CCCC3)CC(=O)N2C)N2CC/C=C\C[C@@H](C2=O)N(C)C(=O)CN(C)C1=O [PP2602] | 0.25 | A (a compound having 10 or more and less than 20 is denoted as A) | A (a compound having 10 or more and less than 20 is denoted as A)

Continued, in another order:

Row | Kd [1] [nM] | SMILES | HRAS/KRAS (ratio of KD value with respect to GDP-bound HRAS wild-type protein to KD value with respect to KRAS) [2] | NRAS/KRAS (ratio of KD value with respect to GDP-bound NRAS wild-type protein to KD value with respect to KRAS) [3]
4 | 0.44 | CCC(CC)[C@H]1C(=O)N(C)[C@H](C(=O)N(C)C)CC(=O)N(C)[C@H]2CCC/C=C/c3ccc(cc3)C[C@@H](C(=O)N(C)CC(=O)N[C@@H](CCc3ccc(Cl)c(Cl)c3)C(=O)N3CCC[C@H]3C(=O)NC3(CC(C)(C)C3)C(=O)N1C)N1CC/C=C\C[C@@H](C1=O)N(C)C(=O)CN(C)C(=O)[C@H]([C@@H](C)CC)NC2=O [PP2603] | A (a compound having 10 or more and less than 20 is denoted as A) | AA (a compound having 20 or more is denoted as AA)
5 | 0.4 | CCC(CC)[C@H]1C(=O)N(C)[C@H](C(=O)N2CCCC2)CC(=O)N(C)[C@H]2CCC/C=C/c3ccc(cc3)C[C@@H](C(=O)N(C)CC(=O)N[C@@H](CCc3ccc(Cl)c(Cl)c3)C(=O)N3CCC[C@H]3C(=O)NC3(CC(C)(C)C3)C(=O)N1C)N1CC/C=C\C[C@@H](C1=O)N(C)C(=O)CN(C)C(=O)[C@H]([C@@H](C)CC)NC2=O [PP2604] | A (a compound having 10 or more and less than 20 is denoted as A) | AA (a compound having 20 or more is denoted as AA)
6 | 0.5 | CCO[C@@H]1C[C@H]2C(=O)NC3(CCC3)C(=O)N(C)[C@@H](C3CCCC3)C(=O)N(C)[C@H](C(=O)N(C)C)CC(=O)N(C)[C@@H](CC3CCCC3)C(=O)N[C@@H]([C@@H](C)CC)C(=O)N(C)CC(=O)N(C)[C@H]3C/C=C\CCN(C3=O)[C@@H](Cc3ccc(C)cc3)C(=O)N(C)CC(=O)N[C@@H](CCc3cc(F)c(CC)c(OC)c3)C(=O)N2C1 [PP2674] | A (a compound having 10 or more and less than 20 is denoted as A) | A (a compound having 10 or more and less than 20 is denoted as A)
